Results on 13 compounds are retold here after publication PMC3672506, “A useful EGFR-TK ligand for tumor diagnosis with SPECT: development of radioiodinated 6-(3-morpholinopropoxy)-7-ethoxy-4-(3′-iodophenoxy)quinazoline” (Annals of Nuclear Medicine, 2013).

Data set [1] relates to A431 epidermoid carcinoma cell line. The settings on record: in vitro; ref [12], [13]; read-out: IC50, cytotoxicity A431 epidermoid carcinoma cell line; cited from earlier work.
Data set [2] deals with T1, EGFR-TK (Homo sapiens, UniProt P00533). As to the kind of experiment: Inhibitory potency against EGFR-TK (SignaTECT protein kinase assay, [32P]ATP phosphorylation). Set-up: The EGF receptor used was an immunopurified receptor from human A431 cells (Promega, WI); purchased Promega; host or cells: A431 cells (endogenous receptor, immunopurified). The format is biochemical. The settings on record: immunopurified EGF receptor from human A431 cells, inhibition of phosphorylation by [32P]ATP, triplicate. As for the experimental part:
The inhibitory potency of the new derivatives against EGFR-TK was measured using a Signa TECT® Protein Kinase Assay System (Promega, WI) according to the protein tyrosine kinase assay protocol of the attached document. The EGF receptor used was an immunopurified receptor from human A431 cells (Promega, WI). […] The reaction was allowed to proceed for 10 min at 30 °C and then was stopped by the addition of guanidine hydrochloride solution (7.5 M, 13 μL). Each reaction mixture (12.5 μL) was spotted onto a biotin capture membrane. After all of the samples had been spotted, they were washed and rinsed as follows: 1 time for 30 s with 200 mL of 2 M NaCl, 3 times for 2 min each with 200 mL of 2 M NaCl, 4 times for 2 min each with 200 mL of 2 M NaCl in 1 % H3PO4, and 2 times for 30 s each with 100 mL of deionized water. The biotin capture membranes were dried on a piece of aluminum foil under a heat lamp for 5–10 min. The radioactivity trapped on the biotin capture membranes was counted with a liquid scintillation counter in 10 mL of scintillation fluid. The IC50 values were determined from sigmoid curves of the percent inhibition of [^32P]ATP radioactivity.
The inhibitory potency of new phenoxyquinazoline derivatives against EGFR-TK in A431 cell membranes was measured as the inhibition of EGFR phosphorylation by [^32P]ATP.

For data set [3], the target named is EGFR-TK in A431 cell membranes (Homo sapiens, UniProt P00533). It counts as binding. As to conditions: A431 P2 membranes, Scatchard analysis. As to the method:
Assays were carried out as described in the previous section. Crude P2 membrane fractions (A431or NALM6, 0.1 mg of protein, 10 μL) and [^125I]PYK (1–300 nM, 100 μL, 0.74 kBq) were used. […] Specific binding was defined as the difference between the total and non-specific binding. Scatchard plot analysis of the saturation binding data was used to determine the equilibrium dissociation constant (K d) and the maximal number of binding sites (B max).
The crude P2 membrane fraction from A431 or NAlM6 cells were used in further binding experiments for pharmacological characterization. […] While, in the NALM6 as a negative-EGFR leukemia cell line, [^125I]PYK binding to cell membranes was undetectable.

For data set [4], the target named is T1, EGFR-TK. As to conditions: inhibitor 1 μM, A431 P2 membranes, 60 min, 25 °C.
Source text: The difference between non-treatment and pretreatment data was examined by Student’s paired t test.
The test system of data set [5] is EGFR-TK. Set-up: method as in PMID 21058048, PMID 22354330. As to conditions: ref [21], [22]; cited from earlier work.
The subject of a further data set is A431 tumor. As to the kind of experiment: Tumor uptake of radioiodinated ligands in A431 tumor-bearing mice. The format is in vivo, balb/c nude mice. As to conditions: A431 tumor-bearing mice; for accumulation in tumors: i.v., 1 h post injection. As for the experimental part:
A suspension of 1 × 10^7 A431 cells in 0.1 mL of medium was inoculated subcutaneously in male balb/c nude mice (4 weeks old, 20–25 g, n = 3). After approximately 2 weeks, when the solid tumor had grown to optimal size, the mice were used for tumor uptake studies. [^125I]6a–d (37 kBq, 74 TBq/mmol) in 0.1 mL of saline was injected intravenously into tumor-bearing mice via the lateral tail vein. At 1 or 24 h after administration, the animals were sacrificed. Samples of tumor were excised and weighed. Radioactivity was measured using a well-type NaI(Tl) scintillation gamma counter. The results were expressed in terms of percentage of injected dose per gram of tumor.

Details of data set [6]: method as in PMID 21058048, PMID 22354330. The settings on record: ref [21], [22]; cited from earlier work.

Values joined by “and” are separate entries in the source; they are usually repeats but may differ in a detail not shown here. Equal entries are not always repeated.

T1 sequence (P00533 25-1210): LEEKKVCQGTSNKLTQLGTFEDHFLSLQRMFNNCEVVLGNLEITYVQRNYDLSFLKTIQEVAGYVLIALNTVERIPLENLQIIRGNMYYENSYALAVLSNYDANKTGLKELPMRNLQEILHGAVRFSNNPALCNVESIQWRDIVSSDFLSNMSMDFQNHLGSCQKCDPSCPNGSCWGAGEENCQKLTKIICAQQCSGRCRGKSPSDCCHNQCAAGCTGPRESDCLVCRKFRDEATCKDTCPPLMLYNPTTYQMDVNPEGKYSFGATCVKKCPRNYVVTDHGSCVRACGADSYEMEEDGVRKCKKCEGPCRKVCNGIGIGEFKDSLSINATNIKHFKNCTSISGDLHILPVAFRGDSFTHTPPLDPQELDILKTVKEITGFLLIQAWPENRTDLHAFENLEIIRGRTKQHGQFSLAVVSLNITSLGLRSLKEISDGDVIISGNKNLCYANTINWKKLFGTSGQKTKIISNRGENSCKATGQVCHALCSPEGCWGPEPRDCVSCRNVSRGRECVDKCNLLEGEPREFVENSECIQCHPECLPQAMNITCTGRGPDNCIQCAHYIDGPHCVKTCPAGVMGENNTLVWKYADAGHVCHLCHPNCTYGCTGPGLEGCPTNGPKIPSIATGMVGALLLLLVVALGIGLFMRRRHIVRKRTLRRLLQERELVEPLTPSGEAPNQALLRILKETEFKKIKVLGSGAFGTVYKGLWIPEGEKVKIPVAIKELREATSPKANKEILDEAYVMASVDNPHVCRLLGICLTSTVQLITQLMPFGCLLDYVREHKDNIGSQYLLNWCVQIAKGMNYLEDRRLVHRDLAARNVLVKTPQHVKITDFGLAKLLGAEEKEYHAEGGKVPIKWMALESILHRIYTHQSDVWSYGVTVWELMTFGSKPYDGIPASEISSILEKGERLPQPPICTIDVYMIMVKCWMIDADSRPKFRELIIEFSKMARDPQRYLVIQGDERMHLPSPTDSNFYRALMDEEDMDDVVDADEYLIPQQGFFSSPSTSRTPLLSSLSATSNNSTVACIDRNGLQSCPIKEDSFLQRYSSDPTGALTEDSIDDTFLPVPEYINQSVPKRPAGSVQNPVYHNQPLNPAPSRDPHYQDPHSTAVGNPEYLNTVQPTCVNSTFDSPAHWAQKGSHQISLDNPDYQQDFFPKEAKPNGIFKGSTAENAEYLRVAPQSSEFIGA
EGFR-TK in A431 cell membranes, sequence (P00533 25-1210): as above

As a reminder, the IC50 is the midpoint of a concentration-inhibition curve. For `COc1cc2ncnc(Nc3cccc(Br)c3)c2cc1OC` [PD153035, 4-(3-bromoanilino)-6,7-dimethoxyquinazoline], the 50% inhibitory concentration (IC50) in data set [1] was 0.029 nM.
One may read the melting point as the temperature, or range, at which the solid turns liquid. Consider `CCOc1cc2ncnc(Oc3cccc(I)c3)c2cc1OCCCc1ccccc1` [6e, 6-(3-Phenylpropoxy)-7-ethoxy-4-(3′-iodophenoxy)quinazoline], for which the melting point lay within 108 to 109 °C. Also, the IC50 against EGFR-TK [2] was above 500 nM.
Take `CCOc1cc2ncnc(Oc3cccc(I)c3)c2cc1OC(C)C` [6c, 6-Isopropoxy-7-ethoxy-4-(3′-iodophenoxy)quinazoline]: the melting point lay in the range of 59 to 62 °C. The IC50 at EGFR-TK [2] was 41.5 nM and 113 nM.
The term Kd denotes a measure of binding affinity in units of concentration. A lower Kd goes with a tighter complex. `CCOc1cc2ncnc(Oc3cccc(I)c3)c2cc1OCCCN1CCOCC1` [[^125I]PYK] showed a Kd in data set [3] of 51.3 ± 11.1 nM.
With `CCOc1cc2ncnc(Nc3cccc(I)c3)c2cc1OCC` [m-IPQ, 4-(3-Iodoanilino)-6,7-diethoxyquinazoline], the “blocking effect on [125I]PYK binding to EGFR-TK” value on EGFR-TK [4] was “significant reduction”. Further, the IC50 in the data set with EGFR-TK [5] was 50.5 ± 3.5 nM.
Consider `CCOc1cc2ncnc(Oc3cccc(I)c3)c2cc1OCC` [PHY, 4-(3-Iodophenoxy)-6,7-diethoxyquinazoline, reference compound], for which the concentration for half-maximal inhibition (IC50) at EGFR-TK [2] and with EGFR-TK [5] was 49 ± 7.2 nM each time.
`CCOc1cc2ncnc(Oc3cccc(I)c3)c2cc1OCCCN1CCN(C)CC1` [6b, 6-[3-(4-Methylpiperazinylpropoxy)]-7-ethoxy-4-(3′-iodophenoxy)quinazoline] registered a 50% inhibitory concentration (IC50) against EGFR-TK [2] of 16.5 ± 1.8 nM.
In turn, `CCOc1cc2ncnc(Oc3cccc(I)c3)c2cc1OCc1ccccc1` [6f, 6-Benzyloxy-7-ethoxy-4-(3′-iodophenoxy)quinazoline] had a melting point of 140 to 142 °C. This compound yielded an IC50 against EGFR-TK [2] above 500 nM.
In turn, `CCOc1cc2ncnc(Oc3cccc(I)c3)c2cc1OCCCN1CCOCC1` [6a, 6-(3-Morpholinopropoxy)-7-ethoxy-4-(3′-iodophenoxy)quinazoline] yielded a melting point of 135 to 137 °C. For the same compound, it took 12 ± 3.9 nM to reach half-maximal inhibition at EGFR-TK [2] (IC50).
The compound `CCOc1cc2ncnc(Oc3cccc(I)c3)c2cc1OCCCN(C)C` [6d, 6-(3-Dimethylaminopropoxy)-7-ethoxy-4-(3′-iodophenoxy) quinazoline] returned a melting point of 64 to 67 °C. In addition, the IC50 against EGFR-TK [2] was 113 nM and 41.5 nM.
Consider `O=P(O)(O)C(O)c1ccc2ccccc2c1` (centres unmarked) [HNMPA], for which the “blocking effect on [125I]PYK binding to EGFR-TK” value at EGFR-TK [4] was “failed to block”.
As for `CCOc1cc2ncnc(Oc3cccc([125I])c3)c2cc1OCCCN(C)C` [[^125I]6d], the “retention in tumors (in words)” value in the data set with A431 tumor (24 h after injection) was “low retention”. This compound also displayed an accumulation in tumors with A431 tumor of 0.55 ± 0.12 % ID/g tissue.
For `CCOc1cc2ncnc(Oc3cccc([125I])c3)c2cc1OCC` [[^125I]PHY], in data set [6], the tumor-to-blood ratio is recorded as 0.94–1.50 and the tumor-to-muscle ratio is 1.02–1.95. The compound further showed an accumulation in tumors with A431 tumor of 0.56 ± 0.12 % ID/g tissue.
